Assay results: ChEMBL document CHEMBL1201862, “PubChem BioAssay data set” (2004)
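48-hour exposure; five concentrations; linearly interpolated endpoints. The concentration for 50% growth inhibition is given as GI50.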 Activity calls are given as the source filed them. Rule as the data show it: active = GI50 up to about 1.1 µM and inactive = higher.

What was measured:
Assay in all cases: growth of human tumour cells (NCI), 48 h
[1] = test system: OVCAR-5
[2] = test system: A498
[3] = test system: MDA-MB-435
[4] = test system: COLO 205
[5] = test system: SK-MEL-28
[6] = test system: CAKI-1
[7] = test system: K562
[8] = test system: OVCAR-3
[9] = test system: PC-3
[10] = test system: IGROV-1
[11] = test system: SR
[12] = test system: RXF 393
[13] = test system: SF-539
[14] = test system: SN12C
[15] = test system: OVCAR-4
[16] = test system: NCI-H460
[17] = test system: OVCAR-8
[18] = test system: EKVX
[19] = test system: DU-145
[20] = test system: M14

Row | Structure (SMILES) | GI50 [1] | GI50 [2] | GI50 [3] | GI50 [4] | GI50 [5] | GI50 [6] | GI50 [7] | GI50 [8] | GI50 [9] | GI50 [10] | GI50 [11] | GI50 [12] | GI50 [13] | GI50 [14] | GI50 [15] | GI50 [16] | GI50 [17] | GI50 [18] | GI50 [19] | GI50 [20]
1 | O=C(NCCc1ccccc1)c1c(O)nc2ccccc2c1O | > 100 µM (inactive) | > 100 µM (inactive) | > 100 µM (inactive) | > 100 µM (inactive) | > 100 µM (inactive) | > 100 µM (inactive) | > 100 µM (inactive) | > 100 µM (inactive) | > 100 µM (inactive) | > 100 µM (inactive) | > 100 µM (inactive) | > 100 µM (inactive) | > 100 µM (inactive) | > 100 µM (inactive) | > 100 µM (inactive) | > 100 µM (inactive) | > 100 µM (inactive) | > 100 µM (inactive) | > 100 µM (inactive) | 
2 | CSc1ncnc2c1ncn2CC(=O)C1CCC2C3CCC4=CC(=O)CCC4(C)C3CCC12C (centres undefined) | 23.9 µM (inactive) | 5.13 µM (inactive) | 2.96 µM (inactive) | 3.41 µM (inactive) | 5.47 µM (inactive) | 10 µM (inactive) | 3.47 µM (inactive) | 4.25 µM (inactive) | 2.57 µM (inactive) | 6.95 µM (inactive) | 2.16 µM (inactive) | 12 µM (inactive) | 8.41 µM (inactive) | 18.3 µM (inactive) | 3.49 µM (inactive) | 4.35 µM (inactive) | 3.53 µM (inactive) | 5.55 µM (inactive) | 13.9 µM (inactive) | 2.4 µM (inactive)
3 | O=C(NNC(=S)Nc1ccccc1)c1cc(-c2ccccc2)nc2ccccc12 | 18.1 µM (inactive) | 11.5 µM (inactive) | 16.5 µM (inactive) | 15.7 µM (inactive) | 16.4 µM (inactive) | 30.1 µM (inactive) | 17.4 µM (inactive) | 11.1 µM (inactive) | 18.6 µM (inactive) | 26.7 µM (inactive) | 13.6 µM (inactive) | 19 µM (inactive) | 21.4 µM (inactive) | 20.8 µM (inactive) | 17.3 µM (inactive) | 20.7 µM (inactive) | 22.3 µM (inactive) |  | 17 µM (inactive) | 14.9 µM (inactive)
4 | CC1=C(C)C(=O)OC(C(C)(O)C2(O)CCC3(O)C4CC(Cl)C5(O)C(O)C=CC(=O)C5(C)C4CCC32C)C1 (centres undefined) | > 100 µM (inactive) | 52.6 µM (inactive) | 18.7 µM (inactive) | 12.9 µM (inactive) | 49 µM (inactive) | 12.2 µM (inactive) | 12.3 µM (inactive) | 52.8 µM (inactive) | 48.1 µM (inactive) | 49.3 µM (inactive) | 8.51 µM (inactive) | 18.5 µM (inactive) | 28.2 µM (inactive) | 61 µM (inactive) | 57.4 µM (inactive) | 36.1 µM (inactive) | 25.1 µM (inactive) | 53.7 µM (inactive) | > 100 µM (inactive) | 40.3 µM (inactive)
5 | Cc1ccc2c(c1)C(=O)C(C1OC(=O)c3ccccc31)C2 (centres undefined) | > 100 µM (inactive) | > 100 µM (inactive) | > 100 µM (inactive) | 56.2 µM (inactive) | > 100 µM (inactive) | > 100 µM (inactive) | 97.3 µM (inactive) | 91 µM (inactive) | 93.5 µM (inactive) | > 100 µM (inactive) | 74.5 µM (inactive) | 43.8 µM (inactive) | 52 µM (inactive) | 92.7 µM (inactive) | > 100 µM (inactive) | > 100 µM (inactive) | > 100 µM (inactive) | > 100 µM (inactive) | > 100 µM (inactive) | > 100 µM (inactive)
6 | CN(CC(=O)O)c1ncc2c(n1)-c1ccccc1CC2 | > 100 µM (inactive) | > 100 µM (inactive) | > 100 µM (inactive) | > 100 µM (inactive) | > 100 µM (inactive) | > 100 µM (inactive) | > 100 µM (inactive) | > 100 µM (inactive) | > 100 µM (inactive) | > 100 µM (inactive) | > 100 µM (inactive) | > 100 µM (inactive) | > 100 µM (inactive) | > 100 µM (inactive) | > 100 µM (inactive) | > 100 µM (inactive) | > 100 µM (inactive) | > 100 µM (inactive) | > 100 µM (inactive) | > 100 µM (inactive)
7 | COc1cc(C(=O)NC(CCN)(c2ccccc2)c2ccccc2)cc(OC)c1OC | > 87.5 µM (inactive) | 12.6 µM (inactive) | 16 µM (inactive) | 14.1 µM (inactive) | 13.8 µM (inactive) | 35.4 µM (inactive) | 12.9 µM (inactive) | 56.8 µM (inactive) | > 100 µM (inactive) | 25.1 µM (inactive) | 15.6 µM (inactive) | 10.4 µM (inactive) | > 65.2 µM (inactive) | 21.7 µM (inactive) | 21.2 µM (inactive) | 19.2 µM (inactive) | > 31.6 µM (inactive) | > 31.6 µM (inactive) | > 31.6 µM (inactive) | 13.9 µM (inactive)
8 | CC1(C)O[C@@H]2[C@@H]3OC(=O)C[C@@H]3[C@@H](COCc3ccccc3)[C@@H]2O1 | > 100 µM (inactive) | > 100 µM (inactive) | > 100 µM (inactive) | > 100 µM (inactive) | > 100 µM (inactive) | > 100 µM (inactive) | > 100 µM (inactive) | > 100 µM (inactive) | > 100 µM (inactive) | > 100 µM (inactive) | > 100 µM (inactive) | > 100 µM (inactive) | > 100 µM (inactive) | > 100 µM (inactive) | > 100 µM (inactive) | > 100 µM (inactive) | > 100 µM (inactive) | > 100 µM (inactive) | > 100 µM (inactive) | > 100 µM (inactive)
9 | O=C1c2[nH]c3ccc(Br)cc3c2CCN1Cc1ccc(Cl)cc1 | 12.5 µM (inactive) | 17.1 µM (inactive) | 14.4 µM (inactive) | 17.7 µM (inactive) | 14.7 µM (inactive) | 19.5 µM (inactive) | 8.79 µM (inactive) | 15.2 µM (inactive) | 4.74 µM (inactive) | 16.7 µM (inactive) | 8.79 µM (inactive) | 16.9 µM (inactive) | 10.7 µM (inactive) | 19.3 µM (inactive) | 18.6 µM (inactive) |  | 18.7 µM (inactive) | > 100 µM (inactive) | 14.2 µM (inactive) | 13.2 µM (inactive)
10 | CC(C)CCCC(C)[C@H]1CC[C@H]2n3c(nc4ccccc43)CCC[C@]12C (some centres undefined) |  | 13.2 µM (inactive) | 19.3 µM (inactive) | 11.1 µM (inactive) | 18.6 µM (inactive) | 17.1 µM (inactive) | 15.6 µM (inactive) | 17.4 µM (inactive) | 18.6 µM (inactive) | 17 µM (inactive) | 15.8 µM (inactive) | 16.4 µM (inactive) | 18.8 µM (inactive) | 15.9 µM (inactive) | 16 µM (inactive) | 15.9 µM (inactive) | 17.1 µM (inactive) |  | 22 µM (inactive) | 16.2 µM (inactive)
11 | COc1cccc2cc(C(=O)Nc3ccccn3)c(=N)oc12 | > 100 µM (inactive) | > 100 µM (inactive) | 63.4 µM (inactive) | > 100 µM (inactive) | > 100 µM (inactive) | > 100 µM (inactive) | 39.4 µM (inactive) | 23.7 µM (inactive) | > 100 µM (inactive) | > 100 µM (inactive) | 2.43 µM (inactive) | 49 µM (inactive) | > 100 µM (inactive) | > 100 µM (inactive) | > 100 µM (inactive) | > 100 µM (inactive) | > 100 µM (inactive) | > 100 µM (inactive) | 54.8 µM (inactive) | 72.8 µM (inactive)
12 | CSCCCNC(=O)c1csc(-c2csc(CCNC(=O)CNC(=O)CNC(=O)OC(C)(C)C)n2)n1 | > 100 µM (inactive) | > 100 µM (inactive) | > 100 µM (inactive) | > 100 µM (inactive) | > 100 µM (inactive) | > 100 µM (inactive) | > 100 µM (inactive) | > 100 µM (inactive) | > 100 µM (inactive) | > 100 µM (inactive) | > 100 µM (inactive) | > 100 µM (inactive) | > 100 µM (inactive) | > 100 µM (inactive) | > 100 µM (inactive) | > 100 µM (inactive) | > 100 µM (inactive) | > 100 µM (inactive) | > 100 µM (inactive) | > 100 µM (inactive)
13 | CN(C)/C=C/c1c2c(nc3ccccc13)C(=O)c1ccccc1C2=O | 3.15 µM (inactive) | 3.91 µM (inactive) | 0.357 µM (active) | 1.79 µM (inactive) | 0.222 µM (active) | 2.06 µM (inactive) | 0.151 µM (active) |  | 0.752 µM (active) | 1.19 µM (inactive) | 0.449 µM (active) | 3.2 µM (inactive) | 1.92 µM (inactive) | 1.26 µM (inactive) | 1.58 µM (inactive) | 0.262 µM (active) | 1.63 µM (inactive) | 1.89 µM (inactive) | 1.38 µM (inactive) | 0.586 µM (active)
14 | O=c1c2cc(Cl)ccc2n2nnc3ccc(NCCNCCO)c1c32 | 1.64 µM (inactive) | 1.44 µM (inactive) | 1.12 µM (inactive) | 0.977 µM (active) | 1.79 µM (inactive) | 1.83 µM (inactive) | 0.589 µM (active) | 1.59 µM (inactive) | 1.16 µM (inactive) | 2.11 µM (inactive) | 0.641 µM (active) | 1.79 µM (inactive) | 1.8 µM (inactive) | 0.731 µM (active) | 1.01 µM (active) | 0.378 µM (active) | 0.614 µM (active) | 1.93 µM (inactive) | 3.44 µM (inactive) | 1.38 µM (inactive)
